“Also recorded” adds a separate entry of the source.
How the values were obtained:
[1] = In vivo pharmacokinetics in sheep; settings: preliminary data, compared with DALDA and [Dmt1]DALDA
Procedure: Five or more days were allowed for recovery from surgery prior to experimental studies.
In vivo pharmacokinetic studies In order to avoid the rapid distribution phase associated with intravenous bolus administration, all three peptides were administered as constant rate intravenous infusions to sheep. […] DALDA (0.6 mg/kg/hr) and [Dmt^1]DALDA (0.06 mg/kg/hr) were, therefore, infused via the venous catheter for a period of 4 hr. […] The current limit of sensitivity of the analytical method prevented the use of an even lower dose of [Dmt^1]DALDA. Blood samples (5 ml) were collected from the arterial catheter at 0, 1, 2, 3, 3.5, 4, 4.25, 4.5, 5, 6 and 7 hr.
Pharmacokinetic Analyses Plasma levels of DAMGO, DALDA and [Dmt^1]DALDA during and after the 4 h infusion were subjected to compartmental analysis using nonlinear regression (WINNONLIN). The derived pharmacokinetic constants were used to calculate the apparent volume of distribution at steady state (Vd), elimination half-life (t1/2) and clearance (CL).

Male Sprague-Dawley rats = test: Rat tail-flick test, antinociceptive effects after intrathecal administration; type: in vivo; settings: yohimbine 100 μg alone, intrathecal
Procedure: Male Sprague-Dawley rats (300-350 g) were used.
Under light halothane anesthesia a needle connected to a Hamilton syringe was inserted percutaneously between spinal processes of the third and fourth lumbar vertebrae into the intrathecal space. A quick flick of the tail was observed when the tip of the needle entered the intrathecal space and was used as an indicator of successful puncture (Mestre et al., 1994). Drugs were delivered in a volume of 5 μl.
Intrathecal catheterization was performed at least two days prior to the experiment as previously described (Shimoyama et al., 1996). Briefly, under halothane anesthesia, a PE-10 tube was inserted through a small hole made in the atlanto-occipital membrane and threaded 8.5 cm down the intrathecal space to the lumbosacral level of the spinal cord. Drugs were delivered via the catheter in a volume of 5 μl, followed by 10 μl saline to flush the catheter.
To assess the antinociceptive effects of the opioids, the tail-flick test was used. Radiant heat was applied to the tail at 5-8 cm from the tip using a tail-flick apparatus (IITC, Woodland Hills, Calif.). The time from the onset of the heat to the withdrawal of the tail (tail-flick latency) was measured. The intensity of the radiant heat was adjusted so that baseline latencies would fall between 2.5 and 3.5 seconds. To avoid tissue damage the heat stimulus was discontinued after seven seconds. A baseline latency was obtained for each animal prior to the administration of any drug. Subsequent response latencies were determined at designated time points. Analgesic testing was performed by a blinded investigator.
Cumulative dose-response studies were performed for each drug using the tail-flick test (Shimoyama et al., 1996), (Shimoyama et al., 1997). Each drug was tested in a group of ten rats. After measuring the baseline latencies, increasing doses of each drug were administered via an intrathecal catheter until each animal in the group became an analgesic responder. An analgesic responder was defined as one whose response tail-flick latency was two or more times the value of the baseline latency. The response latency after each dosing was determined at peak analgesia, which was 15, 30 and 45 min after the administration of the MOR, DALDA and [Dmt^1]DALDA, respectively (based on preliminary studies). Any subsequent dosing was performed immediately after the determination of response latency. The percentage of analgesic responders in the group of rats for each cumulative dose was calculated, and a cumulative dose-response curve was constructed. The dose-response data were analyzed by the BLISS-21 computer program. This program maximized the log-likelihood function to fit a parallel set of gaussian normal sigmoid curves to the dose-response data and provides ED50 values, 95% confidence interval (CI) and relative potency estimates (Umans and Inturrisi, 1981).
The effect of naloxone on the antinociceptive effects of intrathecal MOR, DALDA and [Dmt^1]DALDA was examined. An equipotent dose (3 times the ED50 value determined in Study 1) of MOR, DALDA or [Dmt^1]DALDA was given via an intrathecal catheter. Tail-flick latencies were measured prior to the administration of any drug and at the time of peak analgesia for each compound (at 15, 30 and 45 minutes after administration, for MOR, DALDA and [Dmt^1]DALDA, respectively). Naloxone hydrochloride at a dose of 82.5 nmol or saline was administered via the intrathecal catheter 10 minutes prior to the second tail-flick testing. Four rats were tested for each combination of drugs. Data were analyzed using the paired t-test.
A dose 3 times the ED50 value of MOR, DALDA, or [Dmt^1]DALDA was administered intrathecally. Tail-flick latencies were measured prior to the administration of any drug (=baseline latency) and at the time of peak analgesia (=response latency). […]

| Structure (SMILES) | elimination in sheep [1] | effect on tail-flick latency (Male Sprague-Dawley rats) |
| --- | --- | --- |
| C[C@@H](NC(=O)[C@@H](N)Cc1ccc(O)cc1)C(=O)NCC(=O)N(C)[C@@H](Cc1ccccc1)C(=O)NCCO [DAMGO] | much more rapid elimination | – |
| COC(=O)[C@@H]1[C@H]2C[C@H]3c4[nH]c5ccccc5c4CCN3C[C@@H]2CC[C@@H]1O [Yohimbine, yohimbine, reference compound] | – | no effect; also recorded: not having any effect on tail-flick latency by itself |

— US7732398B2, “Medicinal uses of mu-opioid receptor agonists” (Cornell Research Foundation, Inc., priority 2000, dated 2010)
